Assays:
human Tie2 = target: T1, human Tie2 (Homo sapiens, UniProt Q02763); assay: phosphorylation of PLC by Tie2 (GST-Tie2), FlashPlate; type: biochemical; settings: read-out: TIE2 IC 50
T1 construct: corresponding to the intracellular domain amino acids 776-1124 was generated by PCR; made in house; host or cells: baculovirus expression vector pFastBacGT
Method: The human Tie2 coding sequence corresponding to the intracellular domain amino acids 776-1124 was generated by PCR using the cDNA isolated from human placenta as a model. This sequence was introduced into a baculovirus expression vector pFastBacGT in the form of a GST fusion protein.
The inhibitory effect of the molecules is determined in an assay for phosphorylation of PLC by Tie2 in the presence of GST-Tie2 purified to approximately 80% homogeneity. The substrate is made up of the SH2-SH3 fragments of PLC expressed in the form of a GST fusion protein.
The kinase activity of Tie2 is measured in a 20 mM MOPS buffer, pH 7.2, containing 10 mM MgCl2, 10 mM MnCl2, 1 mM DTT and 10 mM of glycerophosphate. A reaction mixture made up to 70 μl of kinase buffer containing 100 ng of GST-Tie2 enzyme is deposited into each well of a 96-well FlashPlate kept on ice. 10 μl of the test molecule diluted in DMSO at a maximum concentration of 10% are then added. For a given concentration, each measurement is determined in quadruplicate. The reaction is initiated by adding 20 μl of solution containing 2 μg of GST-PLC, 2 μM of cold ATP and 1 μCi of ^33P [ATP]. After incubation at 37° C. for 1 hour, the reaction is stopped by adding 1 volume (100 μl) of 200 mM EDTA. After the incubation buffer has been removed, the wells are washed three times with 300 μl of PBS. The radioactivity is measured on a Wallac MicroBeta 1450.
The inhibition of the Tie2 activity is calculated and expressed as percentage inhibition with respect to the control activity determined in the absence of compound.

human KDR enzyme = target: T2, human KDR enzyme (Homo sapiens, UniProt P35968); assay: phosphorylation of substrate by the KDR enzyme in vitro, scintillation technique; type: biochemical; settings: read-out: KDR IC 50
T2 construct: The cytoplasmic domain of the human KDR enzyme was cloned in the form of a GST fusion; GST; made in house; host or cells: SF21 insect cells (baculovirus, pFastBac)
Method: The inhibitory effect of the compounds is determined in an assay for phosphorylation of substrate by the KDR enzyme in vitro using a scintillation technique (96-well plate, NEN).
The cytoplasmic domain of the human KDR enzyme was cloned in the form of a GST fusion into the baculovirus expression vector pFastBac. The protein was expressed in SF21 cells and purified to approximately 60% homogeneity.
The kinase activity of KDR is measured in 20 mM MOPS, 10 mM MgCl2, 10 mM MnCl2, 1 mM DTT, 2.5 mM EGTA, 10 mM β-glycerophosphate, pH=7.2, in the presence of 10 mM MgCl2, 100 μM Na3VO4, 1 mM NaF. 10 μl of the compound are added to 70 μl of kinase buffer containing 100 ng of KDR enzyme at 4° C. The reaction is initiated by adding 20 μl of solution containing 2 μg of substrate (SH2-SH3 fragment of PLCγ expressed in the form of a GST fusion protein), 2 μCi γ ^33P[ATP] and 2 μM cold ATP. After incubation at 37° C. for 1 hour, the reaction is stopped by adding 1 volume (100 μl) of 200 mM EDTA. The incubation buffer is removed and the wells are washed three times with 300 μl of PBS. The radioactivity is measured in each well using a Top Count NXT radioactivity counter (Packard).
The background noise is determined by measuring the radioactivity in four different wells containing the radioactive ATP and the substrate alone.
A control for total activity is measured in four different wells containing all the reactants (γ^33P-[ATP], KDR and PLCY substrate) but in the absence of compound.
The inhibition of the KDR activity with the compound of the invention is expressed as percentage inhibition of the control activity determined in the absence of compound.
The compound SU5614 (Calbiochem) (1 μM) is included in each plate as an inhibition control.

FAK = FAK (Homo sapiens, UniProt Q05397); assay: FAK inhibition; type: biochemical
FAK, sequence (Q05397 whole entry, species assumed): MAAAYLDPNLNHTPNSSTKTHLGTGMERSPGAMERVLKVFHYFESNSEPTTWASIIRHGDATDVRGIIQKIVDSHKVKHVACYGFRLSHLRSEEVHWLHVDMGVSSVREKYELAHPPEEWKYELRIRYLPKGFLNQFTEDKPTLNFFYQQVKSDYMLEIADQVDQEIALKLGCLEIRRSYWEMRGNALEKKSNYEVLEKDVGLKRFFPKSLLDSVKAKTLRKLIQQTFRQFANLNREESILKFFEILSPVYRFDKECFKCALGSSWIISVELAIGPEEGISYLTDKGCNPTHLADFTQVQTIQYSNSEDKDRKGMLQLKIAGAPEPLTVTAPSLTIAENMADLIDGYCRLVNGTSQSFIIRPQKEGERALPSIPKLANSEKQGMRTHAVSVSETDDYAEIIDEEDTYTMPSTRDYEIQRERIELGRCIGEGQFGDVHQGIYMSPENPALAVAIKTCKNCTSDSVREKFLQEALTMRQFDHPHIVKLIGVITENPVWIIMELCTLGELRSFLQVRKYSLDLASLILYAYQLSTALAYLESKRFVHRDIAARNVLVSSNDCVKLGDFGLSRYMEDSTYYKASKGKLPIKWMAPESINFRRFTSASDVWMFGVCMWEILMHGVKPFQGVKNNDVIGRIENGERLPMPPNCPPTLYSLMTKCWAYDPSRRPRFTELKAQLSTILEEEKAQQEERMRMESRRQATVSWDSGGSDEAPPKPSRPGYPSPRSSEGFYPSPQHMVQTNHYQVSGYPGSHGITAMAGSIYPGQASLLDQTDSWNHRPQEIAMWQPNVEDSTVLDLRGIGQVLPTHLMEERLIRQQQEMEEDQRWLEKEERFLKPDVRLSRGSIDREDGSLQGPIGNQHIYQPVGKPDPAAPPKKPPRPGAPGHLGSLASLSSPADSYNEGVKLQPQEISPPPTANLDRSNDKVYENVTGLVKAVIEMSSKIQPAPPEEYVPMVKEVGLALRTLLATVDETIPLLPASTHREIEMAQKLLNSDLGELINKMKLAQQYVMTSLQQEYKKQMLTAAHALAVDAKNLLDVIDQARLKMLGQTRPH

T1 sequence (Q02763 776-1124): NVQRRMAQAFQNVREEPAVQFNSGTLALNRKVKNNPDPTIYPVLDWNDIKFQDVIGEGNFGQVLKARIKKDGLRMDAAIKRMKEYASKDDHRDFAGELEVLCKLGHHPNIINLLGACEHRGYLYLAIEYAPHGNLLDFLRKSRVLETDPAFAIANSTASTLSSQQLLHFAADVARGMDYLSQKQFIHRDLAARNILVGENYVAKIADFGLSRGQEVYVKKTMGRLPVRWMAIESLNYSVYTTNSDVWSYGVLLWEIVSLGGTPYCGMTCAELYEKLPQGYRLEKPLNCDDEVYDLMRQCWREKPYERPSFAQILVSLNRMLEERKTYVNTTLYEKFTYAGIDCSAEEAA
T2 sequence (P35968 786-1356 limits assumed): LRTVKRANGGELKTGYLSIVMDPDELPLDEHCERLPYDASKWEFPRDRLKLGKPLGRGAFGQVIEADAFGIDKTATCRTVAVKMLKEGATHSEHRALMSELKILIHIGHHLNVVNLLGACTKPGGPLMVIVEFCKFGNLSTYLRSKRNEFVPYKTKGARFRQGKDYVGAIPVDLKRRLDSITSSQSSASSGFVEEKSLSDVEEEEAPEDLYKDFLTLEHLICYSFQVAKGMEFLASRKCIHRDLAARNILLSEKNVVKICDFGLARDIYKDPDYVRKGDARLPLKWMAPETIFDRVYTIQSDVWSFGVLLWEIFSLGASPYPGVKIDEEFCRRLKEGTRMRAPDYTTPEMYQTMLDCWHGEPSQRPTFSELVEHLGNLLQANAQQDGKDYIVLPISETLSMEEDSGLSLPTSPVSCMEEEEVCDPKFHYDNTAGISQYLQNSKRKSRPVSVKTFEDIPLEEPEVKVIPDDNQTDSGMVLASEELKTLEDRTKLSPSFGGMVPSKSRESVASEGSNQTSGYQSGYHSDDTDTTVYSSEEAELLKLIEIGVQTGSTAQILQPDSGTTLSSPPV

For `NC(=O)c1[nH]c2ccccc2c1-c1ccc(NC(=O)Nc2cc(C(F)(F)F)ccc2F)cc1` [Example 1, 3-{4-[3-(2-Fluoro-5-trifluoromethylphenyl)-ureido]phenyl}-1H-indole-2-carboxamide], which IC50 (human Tie2) is on record?
Its IC50 is 3 nM.

And the melting point?
Its melting point is 240 to 242 °C.

And the IC50 (human KDR enzyme)?
The IC50 was 35 nM.

Which results are given for `NC(=O)c1[nH]c2cccnc2c1-c1ccc(NC(=O)Nc2cc(C(F)(F)F)ccc2F)cc1` [Example 2, 3-{4-[3-(2-Fluoro-5-trifluoromethylphenyl)-ureido]phenyl}-1H-pyrrolo[3,2-b]pyridine-2-carboxamide]?
IC50 (human Tie2): 4 nM; melting point: 206 to 208 °C; IC50 (human KDR enzyme): 12 nM

What does the source list for `NC(=O)c1[nH]c2ccccc2c1-c1ccc(NC(=O)Nc2ccccc2)cc1` [Example 3, 3-[4-(3-Phenylureido)phenyl]-1H-indole-2-carboxamide]?
IC50 (human Tie2): 296 nM; melting point: 232 to 234 °C; IC50 (human KDR enzyme): 1520 nM

Which IC50 (human Tie2) does the source give for `Cc1cccc(NC(=O)Nc2ccc(-c3c(C(N)=O)[nH]c4ccccc34)cc2)c1` [Example 4, 3-[4-(3-m-Tolylureido)phenyl]-1H-indole-2-carboxamide] here?
The IC50 was 19 nM.

What about the melting point of the same compound?
Its melting point is 140 to 142 °C.

What about the IC50 (human KDR enzyme) of the same compound?
Its IC50 is 181 nM.

Which results are given for `NC(=O)c1[nH]c2ccccc2c1-c1ccc(NC(=O)Nc2cccc(C(F)(F)F)c2)cc1` [Example 5, 3-[4-(3-Trifluoromethylphenylureido)phenyl]-1H-indole-2-carboxamide]?
IC50 (human Tie2): 6 nM; melting point: 156 to 158 °C; IC50 (human KDR enzyme): 50 nM

Which IC50 (human Tie2) does the source give for `Cc1cc(C)cc(NC(=O)Nc2ccc(-c3c(C(N)=O)[nH]c4ccccc34)cc2)c1` [Example 6, 3-[4-(3,5-Dimethylphenylureido)phenyl]-1H-indole-2-carboxamide] here?
Its IC50 is 16 nM.

And the melting point?
Its melting point is 168 to 170 °C.

What about the IC50 (human KDR enzyme) of the same compound?
The IC50 was 47 nM.

Which IC50 (human Tie2) does the source give for `NC(=O)c1[nH]c2ccccc2c1-c1ccc(NC(=O)Nc2ccccc2F)cc1` [Example 7, 3-[4-(2-Fluorophenylureido)phenyl]-1H-indole-2-carboxamide] here?
Its IC50 is 142 nM.

And the melting point?
The melting point was 146 to 148 °C.

And the IC50 (human KDR enzyme)?
Its IC50 is 1750 nM.

Which IC50 (human Tie2) does the source give for `Cn1c(C(N)=O)c(-c2ccc(NC(=O)Nc3cc(C(F)(F)F)ccc3F)cc2)c2ccccc21` [Example 8, 3-{4-[3-(2-Fluoro-5-trifluoromethylphenyl)-ureido]phenyl}-1-methyl-1H-indole-2-carboxamide] here?
Its IC50 is 27 nM.

And the melting point?
The melting point was > 260 °C.

And the IC50 (human KDR enzyme)?
Its IC50 is 260 nM.

What does the source list for `NC(=O)c1[nH]c2ccccc2c1-c1ccc(NC(=O)Nc2ccc(C(F)(F)F)c(Cl)c2)cc1` [Example 9, 3-{4-[3-(3-Chloro-4-trifluoromethylphenyl)-ureido]phenyl}-1H-indole-2-carboxamide]?
IC50 (human Tie2): 17 nM; melting point: 168 to 170 °C; IC50 (human KDR enzyme): 138 nM

Which IC50 (human Tie2) does the source give for `CC(C)(C)c1cc(NC(=O)Nc2ccc(-c3c(C(N)=O)[nH]c4ccccc34)cc2)no1` [Example 10, 3-{4-[3-(5-tert-butylisoxazol-3-yl)ureido]-phenyl}-1H-indole-2-carboxamide] here?
Its IC50 is 3 nM.

What about the IC50 (FAK) of the same compound?
Its IC50 is 303 nM.

And the melting point?
The melting point was 176 to 178 °C.

What about the IC50 (human KDR enzyme) of the same compound?
Its IC50 is 37 nM.

Which IC50 (human Tie2) does the source give for `NC(=O)c1[nH]c2ccccc2c1-c1ccc(NC(=O)Nc2ccc(OC(F)(F)F)cc2)cc1` [Example 11, 3-{4-[3-(4-Trifluoromethoxyphenyl)ureido]-phenyl}-1H-indole-2-carboxamide] here?
Its IC50 is 105 nM.

What about the melting point of the same compound?
Its melting point is 162 to 164 °C.

What about the IC50 (human KDR enzyme) of the same compound?
The IC50 was 153 nM.

Which melting point does the source give for `COc1ccc(C(F)(F)F)cc1NC(=O)Nc1ccc(-c2c(C(N)=O)[nH]c3ccccc23)cc1` [Example 12, 3-{4-[3-(2-Methoxy-5-trifluoromethylphenyl)ureido]phenyl}-1H-indole-2-carboxamide] here?
Its melting point is 178 to 180 °C.

With `NC(=O)c1[nH]c2ccccc2c1-c1ccc(NS(=O)(=O)c2cc(C(F)(F)F)ccc2F)cc1` [Example 13, 3-[4-(2-Fluoro-5-trifluoromethylbenzenesulfonylamino)phenyl]-1H-indole-2-carboxamide] as the compound, how does the melting point read?
Its melting point is 176 to 178 °C.

With `NC(=O)c1[nH]c2ccccc2c1-c1ccc(NS(=O)(=O)c2cccc(Cl)c2Cl)cc1` [Example 14, 3-[4-(2,3-Dichlorobenzenesulfonylamino)-phenyl]-1H-indole-2-carboxamide] as the compound, how does the melting point read?
The melting point was > 260 °C.

With `Cc1ccc(-n2nc(C(C)(C)C)cc2NC(=O)Nc2ccc(-c3c(C(N)=O)[nH]c4ccccc34)cc2)cc1` [Example 15, 3-{4-[3-(5-tert-Butyl-2-p-tolyl-2H-pyrazol-3-yl)ureido]phenyl}-1H-indole-2-carboxamide] as the compound, how does the melting point read?
The melting point was > 260 °C.

Which melting point does the source give for `Cc1ccc(F)c(NC(=O)Nc2ccc(-c3c(C(N)=O)[nH]c4ccccc34)cc2)c1` [Example 16] here?
Its melting point is 220 °C.

Which IC50 (human Tie2) does the source give for `NC(=O)c1[nH]c2ccccc2c1-c1ccc(NC(=O)Nc2cc(C(F)(F)F)ccc2CN2CCCC2)cc1` [Example 19, 3-{4-[3-(2-Pyrrolidin-1-ylmethyl-5-trifluoromethylphenyl)ureido]phenyl}-1H-indole-2-carboxamide] here?
Its IC50 is 220 nM.

And the IC50 (human KDR enzyme)?
The IC50 was 1890 nM.

Which IC50 (human Tie2) does the source give for `COCc1ccc(C(F)(F)F)cc1NC(=O)Nc1ccc(-c2c(C(N)=O)[nH]c3ccccc23)cc1` [Example 20, 3-{4-[3-(2-Methoxymethyl-5-trifluoromethylphenyl)ureido]phenyl}-1H-indole-2-carboxamide] here?
Its IC50 is 59 nM.

And the IC50 (human KDR enzyme)?
Its IC50 is 234 nM.

Which IC50 (human Tie2) does the source give for `NC(=O)c1[nH]c2ccc[n+]([O-])c2c1-c1ccc(NC(=O)Nc2cc(C(F)(F)F)ccc2F)cc1` [Example 21, 3-{4-[3-(2-Fluoro-5-trifluoromethylphenyl)-ureido]phenyl}-4-oxy-1H-pyrrolo[3,2-b]pyridine-2-carboxamide] here?
The IC50 was 32 nM.

What about the IC50 (human KDR enzyme) of the same compound?
The IC50 was 195 nM.

For `COCCOc1ccc2c(-c3ccc(NC(=O)Nc4cc(C(F)(F)F)ccc4F)cc3)c(C(N)=O)[nH]c2c1` [Example 23, 3-{4-[3-(2-Fluoro-5-trifluoromethylphenyl)-ureido]phenyl}-6-(2-methoxyethoxy)-1H-indole-2-carboxamide], which IC50 (human Tie2) is on record?
Its IC50 is 7 nM.

And the IC50 (human KDR enzyme)?
Its IC50 is 90 nM.

For `NC(=O)c1[nH]c2c(N)cccc2c1-c1ccc(NC(=O)Nc2cc(C(F)(F)F)ccc2F)cc1` [Example 30, 7-Amino-3-{4-[3-(2-fluoro-5-trifluoromethylphenyl)ureido]phenyl}-1H-indole-2-carboxamide], which IC50 (human Tie2) is on record?
Its IC50 is 7 nM.

And the IC50 (human KDR enzyme)?
Its IC50 is 31 nM.

For `NC(=O)c1[nH]c2c(NCCO)cccc2c1-c1ccc(NC(=O)Nc2cc(C(F)(F)F)ccc2F)cc1` [Example 31, 3-{4-[3-(2-Fluoro-5-trifluoromethylphenyl)-ureido]phenyl}-7-(2-hydroxyethylamino)-1H-indole-2-carboxamide], which IC50 (human Tie2) is on record?
Its IC50 is 6 nM.

What about the IC50 (human KDR enzyme) of the same compound?
The IC50 was 75 nM.

What does the source list for `CN(C)CC(=O)Nc1cccc2c(-c3ccc(NC(=O)Nc4cc(C(F)(F)F)ccc4F)cc3)c(C(N)=O)[nH]c12` [Example 32, 7-(2-Dimethylaminoacetylamino)-3-{4-[3-(2-fluoro-5-trifluoromethylphenyl)ureido]phenyl}-1H-indole-2-carboxamide]?
IC50 (human Tie2): 28 nM; IC50 (human KDR enzyme): 144 nM

Which IC50 (human Tie2) does the source give for `NC(=O)c1[nH]c2ccccc2c1-c1ccc(NC(=O)Nc2ccc(OC(F)F)cc2)cc1` [Example 37, 3-{4-[3-(4-Difluoromethoxy-phenyl)ureido]phenyl}-1H-indole-2-carboxamide] here?
The IC50 was 291 nM.

And the IC50 (human KDR enzyme)?
The IC50 was 199 nM.

What does the source list for `CC(C)c1ccc(NC(=O)Nc2ccc(-c3c(C(N)=O)[nH]c4ccccc34)cc2)cc1` [Example 53, 3-{4-[3-(4-Isopropyl-phenyl)ureido]phenyl}-1H-indole-2-carboxamide]?
IC50 (human Tie2): 151 nM; IC50 (human KDR enzyme): 153 nM
